Source: patent US6335168B1 (priority 1998, dated 2002)

Test system: A118G variant human mu opioid receptor
Assay type: cell-based
Details: GIRK activation in oocytes

## β-endorphin
  difference of EC50 values between the A118G variant and the most common mu opioid receptors: about three
